Measured values published in patent US7438931B2, “Methods and compositions for the treatment of angiogenic diseases” (The Regents of The University of Michigan, priority 1998, dated 2008).

Columns and labels:
Serum ceruloplasmin (Cp) = assay: Phase I trial: serum ceruloplasmin as surrogate marker of total-body copper; type: in vivo, human
Description: Three dose regimens were evaluated. All dose levels consisted of TM 20 mg given 3 times daily with meals plus an escalating (levels I, II, and III) in-between meal dosing, given 3 times daily, for a total of 6 doses per day. Loading dose levels I, II, and III provided TM at 10 mg, 15 mg, and 20 mg, 3 times daily between meals, respectively, in addition to the 3 doses of 20 mg each, given with meals, at all dose levels.
Baseline Cp was taken as the nearest Cp measurement to day 1 of treatment, including day 1, since the blood was drawn pre-TM, for all patients. The target Cp reduction was defined as 20% of baseline Cp. Due to Cp assay variability of approximately 2%, a change of Cp to 22% of baseline was considered as achieving the desired reduction of copper. In addition, if the absolute Cp was less than 5 mg/dl, then the patient was considered as having reached the target Cp. No patient reached the target due to an absolute Cp of less that 5 mg/dl, without also being at least 78% reduced from baseline. After reaching the target copper deficient state, TM doses were individually tailored to maintain Cp within a target window of 70-90% reduction from baseline.
A method was required to monitor copper status easily and reliably, so that TM dose could be adjusted appropriately during this trial. With TM administration, serum copper is not a useful measure of total-body copper, because the TM-copper-albumin complex is not rapidly cleared, and the total serum copper (including the fraction bound to the TM-protein complex) actually increases during TM therapy (Brewer et al., 1991a; 1994b; 1996). The serum ceruloplasmin level obtained weekly was used as a surrogate measure of total-body copper status. The serum Cp level is controlled by Cp synthesis by the liver, which, in turn, is determined by copper availability to the liver (Linder et al., 1979). […] The serum Cp level is in the range of 20-35 mg/dl and 30-65 mg/dl for normal controls and cancer patients, respectively. The objective as this trial was to reduce Cp to or below 20% of baseline, and to maintain this level, within a window spanned by (20±10) % of the baseline Cp, with typical Cp values in the range of 7-12 mg/dl. Since there appears to be no untoward clinical effects from this degree of copper reduction, this level of copper deficiency has been termed “chemical copper deficiency”. The first indication of true clinical copper deficiency is a reduction in blood cell counts, primarily anemia, as copper is required for heme synthesis as well as cellular proliferation (Brewer et al., 1996). Thus, the copper deficiency objective of this trial was to reduce the Cp to 20% of baseline or below, without decreasing the patient's hematocrit or WBC to below 80% of the baseline value at entry.
Complete blood counts, liver and renal function tests, urinalyses, and Cp level (by the oxidase method) were performed weekly for 16 weeks, then bi-weekly. Physical examinations and evaluations of toxicity were carried out every 2 weeks for 8 weeks, then every 4 weeks for the duration of therapy. Toxicity was evaluated using the National Cancer Institute Common Toxicity Criteria (Table 3). As TM is not a cytotoxic drug at the doses employed, and it has already been given to humans without any other toxicities than the ones described in detail above, the majority of the toxicities listed in Table 3, should they arise, are not expected to be due to TM. Nevertheless, therapy will be discontinued and the patient removed from the study if grade 3 or higher toxicities of any type are observed, whatever the probable etiology. For grade 2 toxicities, an attempt will be made to establish their etiology.

[1] = system: MML cells (prostate cancer) and breast cancer cells; assay: Cytotoxicity assay of MML cells and breast cancer cells; type: cell-based
Excerpt: Normal and neoplastic cells in culture derive their nutrients from transport and utilization of molecules from the media to the interior of the cell. This process is not dependent on blood vessel growth, and therefore TM should have no effect on cell growth rates and cell viability over a wide range of concentration, until a level of TM which is toxic to most cells is reached. One mechanism of toxicity is the depletion of free copper levels below those required for basic cell function. For concentrations of TM beyond this toxic level, both normal and neoplastic cells will be unable to survive, due to cellular toxicity of TM.
This was confirmed in a cytotoxicity assay of MML cells (prostate cancer) and breast cancer cells. […] The fraction of viable cells decreased precipitously from 100% to 15% when the concentration of TM increased from 1 μg/ml to 10 μg/ml. TM is therefore not contemplated for use a direct cytotoxic agent, as it is clear that, at the very high doses required for a cytotoxic effect, both tumor and normal cell death would occur. The serum TM concentrations needed to achieve an effective decoppering level are 100-500-fold lower than the threshold lethal level for cells.

[2] = Storage stability of TM (bulk under argon, capsules); type: physicochemical; conditions: room temperature
Excerpt: The bulk drug is therefore stored under argon.
TM was purchased in bulk lots suitable for human administration (Aldrich Chemical Company, Milwaukee, Wis.). […] At the time a prescription was written, the appropriate dose of TM was placed in gelatin capsules. Previously, it was shown by the inventors that TM dispensed in such capsules retained at least 90% of its potency for eight weeks (Brewer et al., 1991a). Thus, TM was dispensed to each patient in eight-week installments throughout the trial.

[3] = system: SUM149 breast cancer cells; assay: Nude mice with orthotopically injected SUM149 cells; type: in vivo
Excerpt: In this study, the ability of tetrathiomolybdate (TM) to abrogate or retard the growth of tumors in the mammary pads of nude mice after orthotropic injection of human breast cancer cells was studied. The highly angiogenic inflammatory breast cancer cell line called SUM149 was selected for this study. Given its high propensity to form palpable tumors within 2 weeks of injection into the mammary of 80-100% of the nude mice injected, this cell line posed a stringent test of the ability of TM to impair tumor progression.
Three groups of 5 nude mice each were set up in separate cages. Groups 2 and 3 received TM in the drinking water to average an intake of 1.2 mg/day/mouse, starting at day −7. Groups 1, 2, and 3 were injected on day 0 with 10^6 SUM149 breast cancer cells in the second thoracic mammary fat pad. On day 34, as no palpable tumors were noticeable in any of the mice in the treatment groups, TM was skipped on groups 2 and 3, and then TM was restarted on group 2 at a dose of 0.6 mg/day/mouse, while TM was resumed at full dose (1.2 mg/mouse/day) in group 3.
The developing tumors were measured approximately twice weekly, and the average of the product of the bi-dimensional perpendicular diameters for each group versus time is plotted in FIG. 3. The tumors in the control group grew relatively rapidly and all animals developed tumors. […] This dose decreases copper to approximately 10-20% of baseline levels. It is this degree of copper deficiency, well tolerated in both mice and humans, which appears to be required to inhibit tumor angiogenesis.

[4] = initial TM doses 90 to 120 mg per day, six times per day regimen

For tetrathiomolybdate [TM], the “No. of Patients: Achieved Target Cp” value (Serum ceruloplasmin (Cp); 18 patients) was 14, the “No. of Patients: Did Not Achieve Target Cp” value (Serum ceruloplasmin (Cp); 18 patients) was 4 and the “time to Cp 50% of baseline, mean” value (Serum ceruloplasmin (Cp); 90, 105 and 120 mg/day) was 30 days. The “time to Cp 50% of baseline, median” value (Serum ceruloplasmin (Cp); 90, 105 and 120 mg/day) was 28 days, the “time for further reduction to Cp levels of 5-10 mg/dl” value (Serum ceruloplasmin (Cp); after reduction to 50% of baseline) was 20 to 30 days and the “effect of increasing in-between meals dose on Cp decrease” value (Serum ceruloplasmin (Cp); from 10 mg 3× daily to 15 mg or 20 mg 3× daily) was “no significant effect on the rate of decrease of the Cp level”. For the same substance, the “No. of Patients: Target Cp <90 days” value (Serum ceruloplasmin (Cp); in vivo) was 8/14, the “No. of Patients: Target Cp >90 days” value (Serum ceruloplasmin (Cp); in vivo) was 6/14 and the “patients maintained at the target Cp for more than 90 days” value (Serum ceruloplasmin (Cp); in vivo) was 39 % of those treated. The “time to rapid rise in Cp when TM was discontinued” value (Serum ceruloplasmin (Cp); in vivo) was at most 48 h, the “patients with serum Cp lowered to 20% of baseline” value (Serum ceruloplasmin (Cp); [4]) was 14 out of 18 and the “patients with serum Cp lowered to 50% of baseline” value (Serum ceruloplasmin (Cp); [4]) was 17 out of 18. The “reaching the target Cp” value (Serum ceruloplasmin (Cp); level III dose 120 mg/day) was “effective in reaching the target Cp, without added toxicity”, the “serum TM concentrations for effective decoppering relative to threshold lethal level for cells” value [1] was 100-500 fold lower and the stability in capsules [2] was “stable in capsules for several months at room temperature”. For the same substance, the palpable tumors ([3]; 1.2 mg/day/mouse in drinking water from day −7) was “no tumors were palpable until TM was skipped on day 34”, the “tumor growth after TM skipped on day 34” value ([3]; TM restarted at ½ dose (0.6 mg/day/mouse)) was “the tumors grew more rapidly” and the “tumor growth after TM skipped on day 34” value ([3]; TM resumed at full dose 1.2 mg/day/mouse) was “only very small tumors have grown”. The copper level ([3]; full dose 1.2 mg/day/mouse) was 10-20 % of baseline levels and the “decrease of copper levels” value ([3]; ½ dose of TM (0.6 mg/day/mouse)) was 50%.
